Laboratory results: patent US20090280112A1 (The Regents of the University of California, priority 2008, published 2009)

Columns and labels:
[1] = tested on: LAPC-4 prostate cancer cells; experiment: LAPC-4 prostate cancer cell growth (CyQuant or BCA cell proliferation assay); assay type: cell-based, human; settings: for block of the effect of 1 nM DHT to stimulate proliferation: much smaller effects on non-androgen mediated growth
Procedure: LAPC-4 prostate cancer cells were maintained at 37° C., 5% CO2 in phenol-free RPMI+10% FCS RPMI. Steroid free medium consisted of phenol-free RPMI supplemented with 10% dextran-coated, charcoal-treated serum (10% CDSS RPMI). LAPC-4 cells were incubated in this steroid-free 10% CDSS RPMI for 3 days prior to plating in 96 well plates (5×10^3 cells/well). […] The medium with androgens and inhibitors was refreshed on day 3. The plates were harvested on day 7 by inverting the microplate onto paper towels with gentle blotting to remove growth medium without disrupting adherent cells and freezing them at −80° C. for at least 30 minutes. LAPC-4 prostate cancer cell growth was determined using either the CyQuant cell proliferation assay (Molecular Probes, Eugene, Oreg.) or by the BCA assay (Pierce, Rockford, Ill.). Cell proliferation was calculated as the percent of content versus control cells at day 0.
Each value shown is the mean+SD for triplicate determinations. In FIGS. 1a and 2b, cell proliferation was measured by BCA, and in FIG. 1c by the CyQuant method. In all future studies, the CyQuant method was employed to measure proliferation.

IGF-1 receptor = IGF-1 receptor content in LAPC-4 cells (immunoprecipitation, western blot); assay type: cell-based, human
Procedure: At the end of the incubation period, cells were washed twice with PBS and solubilized with lysis buffer (50 mM HEPES pH 7.6, 150 mM NaCl, 0.1% Triton X-100, 1 mM PMSF, 2 mM Na3VO4) for 1 hour at 4° C. […] The immunoprecipitated samples were run on SDS-PAGE, under reducing condition. Following transfer to nitrocellulose membrane, levels of IGF-1 receptor were assessed by western blot. Following an overnight incubation at 4° C., the membranes were washed 3 times with TBST and then incubated with HRP-conjugated anti-rabbit IgG diluted 1:50,000 in the same blocking buffer for 90 minutes at room temperature. After washing, blots were incubated with Super Signal (Pierce Chemicals, Rockford, Ill.), and exposed to film.

insulin receptor (IR) = settings: FIG. 5c
Procedure: Level of insulin receptor was determined in 15 μg of total protein run on SDS-PAGE under reducing conditions, transferred to nitrocellulose membrane, and analyzed by probing with an anti-insulin receptor antibody CT-3, diluted 1:1000 in 1% milk, 1% BSA in TBST at 4° C. overnight. The secondary anti-mouse IgG, diluted 1:2000 in the same blocking buffer, was applied for 90 minutes at room temperature. Blots were incubated with SuperSignal, and exposed to film.

IGF-1 receptor mRNA = experiment: IGF-1 receptor gene expression by quantitative PCR in LAPC-4 cells; assay type: cell-based, human; settings: FIG. 6a
Procedure: A large master mix of the above-mentioned components (minus the primers, probe and cDNA) was made for each experiment and aliquoted into individual tubes, one for each cDNA sample. cDNA was then added to the aliquoted master mix. The master mix with cDNA was aliquoted into a 384-well plate, with nine wells used for each cDNA sample. The primers and probes were mixed together and added to the master mix and cDNA in the 384-well plate. PCR was conducted on the ABI 7900HT (Applied Biosystems, CA) using the following cycle parameters: 1 cycle of 95° C. for 10 minutes, 40 cycles of 95° C. for 15 seconds, 60° C. for 1 minute. Analysis was carried out using the SDS software (version 2.3) supplied with the ABI 7900HT. The Ct values for each set of three reactions were averaged for all subsequent calculations. PCR primer and TaqMan probe sequences were either synthesized by Integrated DNA Technologies (Coralville, Iowa) or purchased from Applied Biosystems (Foster City, Calif.).

LAPC-4 cells = experiment: LAPC-4 growth in soft agar (anchorage independent growth), CyQuant; assay type: cell-based, human; settings: 1 nM DHT, 6 days, FIG. 3b
[2] = tested on: patients with both androgen-dependent and androgen-independent prostate cancer; settings: Ryan et al. (2008), cited from earlier work

COc1cc([C@@H]2c3cc4c(cc3[C@H](O)[C@H]3COC(=O)[C@@H]23)OCO4)cc(OC)c1OC [PPP, picropodophyllin]
block of the effect of 1 nM DHT to stimulate proliferation [1]: completely blocked

C[C@]12CCC(=O)C[C@@H]1CC[C@@H]1[C@@H]2CC[C@]2(C)[C@@H](O)CC[C@@H]12 [DHT, dihydrotestosterone]
affect to stimulate growth above control ([1]; DHT at 10 nM, 7 days, 3 separate experiments, mean+SEM): 83+8%
concentration at which a major effect on proliferation was observed ([1]; FIG. 1b): 0.1 nM
concentration at which a significant effect on IGF-1 receptor content was observed (IGF-1 receptor; FIG. 5b): 0.1 nM
effect on content of the IGF-1 receptor (IGF-1 receptor; western blot, FIG. 5a): markedly increased
change in content of insulin receptor (IR) (insulin receptor (IR)): no change
concentration that maximally increases IGF-1 receptor gene expression (IGF-1 receptor mRNA): 0.1 nM

Nc1ncnc2c1c(-c1cccc(OCc3ccccc3)c1)cn2C1CC(CN2CCC2)C1 (centres unmarked) [NVP-AEW541]
block of the effect of 1 nM DHT to stimulate proliferation [1]: completely blocked

C[C@H](Cc1ccc(O)c(O)c1)[C@@H](C)Cc1ccc(O)c(O)c1 [NDGA, Meso-nordihydroguaiaretic acid]
IC50 ([1]; Homo sapiens, LAPC4, 5 separate experiments, mean+SEM, read-out: half-maximal effect to inhibit androgen-stimulated growth): 5 µM
inhibition of the effect of DHT on growth in soft agar (LAPC-4 cells): inhibited anchorage independent growth
IC50 (IGF-1 receptor; read-out: effects to inhibit DHT-induced IGF-1 receptor content, 3 separate experiments, mean+SEM, FIG. 5e): 11 µM
inhibition of the effect of DHT to increase expression of IGF-1 receptor (IGF-1 receptor mRNA; NDGA at 10 μM): completely inhibit
clinical safety [2]: reasonable safety
effect on PSA ([2]; patients with non-castrate levels of testosterone and a rising PSA): modest declines in PSA
